Source: patent US11339130B1 (Blade Therapeutics, Inc., priority 2016, dated 2022)
Where two headings read alike, the source gives them in different places.

Assays:
[1] = target: T1, Human Calpain 2/NS1 (Homo sapiens, UniProt P17655); assay: Calpain inhibition continuous fluorescence (FRET) assay, Human Calpain 2/NS1; type: biochemical; conditions: read-out: Human Calpain 2/NS1 IC50
T1 sequence (P17655 1-700): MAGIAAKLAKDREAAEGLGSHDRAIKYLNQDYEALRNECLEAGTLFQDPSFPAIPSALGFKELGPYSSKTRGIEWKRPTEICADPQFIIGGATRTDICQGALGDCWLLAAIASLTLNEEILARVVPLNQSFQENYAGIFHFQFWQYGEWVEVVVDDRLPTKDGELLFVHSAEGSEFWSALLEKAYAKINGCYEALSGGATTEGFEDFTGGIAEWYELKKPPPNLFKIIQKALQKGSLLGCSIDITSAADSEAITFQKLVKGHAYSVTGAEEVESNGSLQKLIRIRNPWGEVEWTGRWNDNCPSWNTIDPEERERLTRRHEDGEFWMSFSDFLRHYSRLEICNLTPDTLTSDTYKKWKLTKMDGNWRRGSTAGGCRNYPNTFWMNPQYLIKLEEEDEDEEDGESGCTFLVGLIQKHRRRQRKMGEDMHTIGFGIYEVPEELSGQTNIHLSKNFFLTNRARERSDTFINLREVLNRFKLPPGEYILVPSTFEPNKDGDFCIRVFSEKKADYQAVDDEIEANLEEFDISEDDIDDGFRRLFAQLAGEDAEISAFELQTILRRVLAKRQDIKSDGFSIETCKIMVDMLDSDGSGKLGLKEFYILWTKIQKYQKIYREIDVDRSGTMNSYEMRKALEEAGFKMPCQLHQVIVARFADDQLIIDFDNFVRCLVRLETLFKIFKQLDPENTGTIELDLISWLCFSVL
T1 sequence (P04632 1-268 partner): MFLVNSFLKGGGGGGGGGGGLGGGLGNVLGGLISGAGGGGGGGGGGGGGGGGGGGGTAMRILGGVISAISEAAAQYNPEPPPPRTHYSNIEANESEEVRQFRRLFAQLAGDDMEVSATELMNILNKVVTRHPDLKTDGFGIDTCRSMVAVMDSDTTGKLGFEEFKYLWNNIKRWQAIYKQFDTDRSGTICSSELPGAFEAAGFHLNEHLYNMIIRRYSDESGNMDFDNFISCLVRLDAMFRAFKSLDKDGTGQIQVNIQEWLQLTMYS
Outline: (§1)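 Buffer 50 mM Tris pH 7.5/100 mM NaCl/1 mM DTT; enzyme + cpd preinc 25C; start w/ FRET substrate + CaCl2; kinetic 490/520 nm, 10 min; slopes 1-5 min; 4-PL IC50.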

[2] = target: T2, Human Calpain 1/NS1 (Homo sapiens, UniProt P07384); assay: Calpain inhibition continuous fluorescence (FRET) assay, Human Calpain 1/NS1; type: biochemical; conditions: read-out: Human Calpain 1/NS1 IC50
T2 sequence (P07384 1-714): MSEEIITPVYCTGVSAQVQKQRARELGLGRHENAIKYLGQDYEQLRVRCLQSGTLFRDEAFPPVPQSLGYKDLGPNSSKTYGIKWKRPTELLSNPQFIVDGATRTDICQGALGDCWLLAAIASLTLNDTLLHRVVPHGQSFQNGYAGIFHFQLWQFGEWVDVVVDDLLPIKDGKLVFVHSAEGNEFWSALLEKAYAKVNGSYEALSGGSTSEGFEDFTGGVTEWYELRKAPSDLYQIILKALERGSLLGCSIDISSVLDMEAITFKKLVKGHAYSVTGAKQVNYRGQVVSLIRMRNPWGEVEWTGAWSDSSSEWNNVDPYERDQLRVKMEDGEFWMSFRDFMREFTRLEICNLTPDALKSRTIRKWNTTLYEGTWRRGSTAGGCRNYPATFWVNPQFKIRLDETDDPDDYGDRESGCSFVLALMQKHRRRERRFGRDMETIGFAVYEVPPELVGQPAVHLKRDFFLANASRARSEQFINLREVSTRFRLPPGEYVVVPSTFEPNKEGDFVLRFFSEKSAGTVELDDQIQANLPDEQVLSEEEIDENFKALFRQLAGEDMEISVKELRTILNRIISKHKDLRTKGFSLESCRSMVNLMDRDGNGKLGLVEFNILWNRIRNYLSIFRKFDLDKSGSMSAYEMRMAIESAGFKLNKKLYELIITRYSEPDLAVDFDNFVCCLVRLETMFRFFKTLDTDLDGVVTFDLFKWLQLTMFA
T2 sequence (P04632 1-268 partner): T1 sequence (P04632 1-268 partner)
Outline: as §1

[3] = system: Calpain activity in SH-SY5Y cells (SBDP-150); assay: SH-SY5Y Spectrin western blot assay (SBDP-150 breakdown product, A23187-induced); type: cell-based; conditions: Homo sapiens, SH-SY5Y cells, read-out: SH-SY5Y Spectrin IC50
[4] = target: T3, Human Calpain 9/NS1 (Homo sapiens, UniProt O14815); assay: Calpain inhibition continuous fluorescence (FRET) assay, Human Calpain 9/NS1; type: biochemical; conditions: read-out: Human Calpain 9/NS1 IC50
T3 sequence (O14815 1-690): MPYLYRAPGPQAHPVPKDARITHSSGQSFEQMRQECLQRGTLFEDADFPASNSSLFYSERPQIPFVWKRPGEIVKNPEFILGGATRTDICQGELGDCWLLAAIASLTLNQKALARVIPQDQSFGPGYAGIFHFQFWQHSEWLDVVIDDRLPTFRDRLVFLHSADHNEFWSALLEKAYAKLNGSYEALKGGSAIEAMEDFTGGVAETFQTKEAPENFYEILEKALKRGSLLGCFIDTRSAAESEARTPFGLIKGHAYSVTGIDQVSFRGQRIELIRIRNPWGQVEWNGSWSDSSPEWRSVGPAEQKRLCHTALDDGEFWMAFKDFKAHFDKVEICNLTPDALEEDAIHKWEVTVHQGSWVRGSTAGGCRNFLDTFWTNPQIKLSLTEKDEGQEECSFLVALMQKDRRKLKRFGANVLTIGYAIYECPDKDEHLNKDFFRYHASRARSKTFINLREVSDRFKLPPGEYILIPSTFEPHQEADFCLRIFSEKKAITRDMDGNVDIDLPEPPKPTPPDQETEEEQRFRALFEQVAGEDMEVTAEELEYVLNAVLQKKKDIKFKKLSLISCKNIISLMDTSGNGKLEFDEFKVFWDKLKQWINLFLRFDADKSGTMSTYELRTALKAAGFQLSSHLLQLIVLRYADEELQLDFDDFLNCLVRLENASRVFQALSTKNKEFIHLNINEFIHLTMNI
T3 sequence (P04632 1-268 partner): T1 sequence (P04632 1-268 partner)
Outline: as §1

[5] = system: Calpain activity in SH-SY5Y cells; assay: SH-SY5Y + AMC fluorescence assay (Suc-LLVY-AMC substrate); type: cell-based; conditions: read-out: SH-SY5Y + AMC IC50
[6] = Column D, A23187-induced SBDP-150
[7] = A23187-induced SBDP-150, western blot

Row | Compound | IC50 ([1]; Column B) [µM] | IC50 ([2]; Column A) [µM] | IC50 [3, 6] [µM] | IC50 ([4]; Column C) [µM] | IC50 [1] [µM] | IC50 [2] [µM] | IC50 [3, 7] [µM] | IC50 [4] [µM] | IC50 [5] [µM] | IC50 ([5]; Column E) [µM]
1 | Cc1cc(C(=O)N[C@@H](Cc2ccccc2)C(=O)C(N)=O)n(-c2nc3ccccc3s2)n1 [Compound 13, (S)—N-(4-amino-3,4-dioxo-1-phenylbutan-2-yl)-1-(benzo[D]thiazol-2-yl)-3-methyl-1H-pyrazole-5-carboxamide] | < 3 | < 3 | > 25 | < 3 |  |  |  |  |  | 
2 | Cc1cc(C(=O)N[C@@H](Cc2ccccc2)C(=O)C(N)=O)n(-c2cccc(CNC(=O)c3ccccc3)c2)n1 [Compound 141, (S)—N-(4-amino-3,4-dioxo-1-phenylbutan-2-yl)-1-(3-(benzamidomethyl)phenyl)-3-methyl-1H-pyrazole-5-carboxamide] | < 3 | < 3 | 10 to 25 | < 3 |  |  |  |  |  | 
3 | Cc1cc(C(=O)N[C@@H](Cc2ccccc2)C(=O)C(N)=O)n(-c2ccc(CNC(=O)CCc3ccccc3)cc2)n1 [Compound 155, (S)—N-(4-amino-3,4-dioxo-1-phenylbutan-2-yl)-3-methyl-1-(4-((3-phenylpropanamido)methyl)phenyl)-1H-pyrazole-5-carboxamide] | < 3 | < 3 | > 25 | < 3 |  |  |  |  |  | 
4 | NC(=O)C(=O)[C@H](Cc1ccccc1)NC(=O)c1nccn1-c1ccccc1 [Compound 221, (S)—N-(4-amino-3,4-dioxo-1-phenylbutan-2-yl)-1-phenyl-1H-imidazole-2-carboxamide] | < 3 | < 3 | > 25 | < 3 |  |  |  |  |  | 
5 | Cc1cc(C(=O)NC(Cc2ccccc2)C(=O)C(N)=O)n(-c2ncccc2C)n1 (centres unmarked) [Compound 345, N-(4-amino-3,4-dioxo-1-phenylbutan-2-yl)-3-methyl-1-(3-methylpyridin-2-yl)-1H-pyrazole-5-carboxamide] |  |  |  |  | > 10 | > 10 | > 25 | > 10 |  | 
6 | Cn1cc(C(=O)NC(C=O)c2ccccc2C(F)(F)F)c(-c2ccccc2F)n1 (centres unmarked) [Compound 519, 3-(2-Fluorophenyl)-1-METHYL-N-(2-oxo-1-(2-(trifluoromethyl)phenyl)ethyl)-1H-pyrazole-4-carboxamide] |  |  |  |  | > 10 | > 10 |  | > 10 | > 25 | 
7 | (S)—N-(4-amino-3,4-dioxo-1-phenylbutan-2-yl)-1-methyl-3-(pyrimidin-4-yl)-1H-pyrazole-4-carboxamide [Compound 193] | < 3 | 3 to 10 |  | 3 to 10 |  |  |  |  |  | > 25

Continued, values first:

Row | IC50 ([1]; Column B) [µM] | IC50 ([2]; Column A) [µM] | IC50 [3, 6] [µM] | IC50 ([4]; Column C) [µM] | IC50 [1] [µM] | IC50 [2] [µM] | IC50 [3, 7] [µM] | IC50 [4] [µM] | IC50 [5] [µM] | IC50 ([5]; Column E) [µM] | Compound
8 | < 3 | < 3 | 10 to 25 | < 3 |  |  |  |  |  |  | O=C[C@H](Cc1ccccc1)NC(=O)c1ccnn1-c1ccccc1 [Compound 2, (S)—N-(1-oxo-3-phenylpropan-2-yl)-1-phenyl-1H-pyrazole-5-carboxamide]
9 | < 3 | < 3 | 10 to 25 | < 3 |  |  |  |  |  |  | Cc1cccc2sc(-n3nc(C(=O)N[C@@H](Cc4ccccc4)C(=O)C(N)=O)cc3C)nc12 [Compound 299, (S)—N-(4-amino-3,4-dioxo-1-phenylbutan-2-yl)-5-methyl-1-(4-methylbenzo[d]thiazol-2-yl)-1H-pyrazole-3-carboxamide]
10 |  |  |  |  | < 3 | < 3 | > 25 | < 3 |  |  | Cn1cc(C(=O)N[C@@H](Cc2ccccc2)C(=O)C(=O)NCCNC(=O)OC(C)(C)C)c(-c2ccccc2)n1 [Compound 340, Tert-butyl (S)-(2-(3-(1-methyl-3-phenyl-1H-pyrazole-4-carboxamido)-2-oxo-4-phenylbutanamido)ethyl)carbamate]
11 |  |  |  |  | < 3 | < 3 | 10 to 25 | < 3 |  |  | Cc1cc(C(=O)N[C@@H](Cc2ccccc2)C(=O)C(N)=O)n(-c2cccc(CNC(=O)OCc3ccccc3)c2)n1 [Compound 343, Benzyl (S)-(3-(5-((4-amino-3,4-dioxo-1-phenylbutan-2-yl)carbamoyl)-3-methyl-1H-pyrazol-1-yl)benzyl)carbamate]
